Experimental data taken from patent publication US10308615B2, “Heterocyclic compounds as inhibitors of Vanin-1 enzyme” (Pfizer Inc., priority 2015, dated 2019).

Legend:
Assay type in all cases: biochemical
human vanin-1 [1] = biological target: T1, human vanin-1 (Homo sapiens (Human), UniProt O95497); assay: Human Vanin-1 Enzyme Assay 1; conditions: 25 pM human vanin-1, 50 uM pantetheine 7-amino-4-trifluoromethylcoumarin, 30 min preincubation, 60 min
Outline: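 Purified His6/FLAG-tagged extracellular domain of human vanin-1, secreted from CHO cells, at 25 pM final in 50 mM Tris-HCl pH 8.0, 50 mM KCl, 0.005% Brij-35, 1.6 mM cysteamine, 0.5% DMSO. Inhibitor preincubated 30 min at room temperature; 50 uM pantetheine-AFC substrate, 60 min, fluorescence at 405/510 nm; 11-point four-fold dilution series.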

human vanin-1 [2] = biological target: T1, human vanin-1; assay: Human Vanin-1 Enzyme Assay 2; conditions: 1 nM human vanin-1, 10 uM substrate, 45 min
Experimental: Human Vanin-1 Enzyme Assay 2.
The in vitro assay measures enzymatic cleavage of the fluorescently-labeled vanin substrate, pantetheine 7-amino-4-trifluoromethylcoumarin, by human vanin-1.
The vanin-1 protein was prepared in-house from a construct expressing the extracellular domain of human vanin-1 (GenBank ID NM_004666) preceded N-terminally by the honey bee melittin signal peptide, a GSG linker sequence, a His6X tag and a FLAG tag. The secreted, soluble enzyme was purified from the conditioned medium from a CHO cell line stably expressing the resulting protein. Enzyme purification was performed through sequential Ni NTA and size-exclusion chromatography steps.
On the day of the assay, dose response plates were prepared by diluting the inhibitors in DMSO at compound concentration 100-fold the final in-assay concentration. Concentration series were prepared by serially diluting in DMSO in a half-log series for a total of 11 data points. Intermediate compound plates containing compound in 10% DMSO were then created by diluting the compounds 10-fold in assay buffer consisting of 50 mM Tris-HCl pH=8.0, 50 mM KCl, 0.005% Brij-35 and 1.5 mM cysteamine. To begin the assay 3 μL were transferred from the intermediate compound plate to the assay plate.
A working solution of human vanin-1 was prepared by diluting the enzyme stock to 1.25 nM in assay buffer. Next, 24 μL of the vanin-1 working solution were transferred to the assay plate. The enzyme reaction was then initiated by the addition of 3 μL of 100 μM pantetheine 7-amino-4-trifluoromethylcoumarin prepared in assay buffer. The final concentrations in the assay were 1 nM human vanin-1 and 10 uM substrate. The final concentration of DMSO was 1%. The assay plates were incubated for 45 minutes and before they were read on a Spectramax M5 using a 405 nm excitation wavelength and a 505 nm emission wavelength for detection.

human vanin-1 [3] = biological target: T1, human vanin-1; assay: Human Vanin-1 Enzyme Assay 3; conditions: 2 nM human vanin-1, 10 uM substrate, 15 min
Outline: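 His/FLAG-tagged extracellular domain of human vanin-1 from CHO cells, used at 2 nM final, with 10 uM pantetheine-AFC substrate. Buffer: 50 mM Tris-HCl pH 8.0, 50 mM KCl, 0.005% Brij-35, 1.5 mM cysteamine, 1% DMSO. 15 min at room temperature; fluorescence read at 405/505 nm across an 11-point 2-fold dilution series.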

T1 sequence (O95497 22-491): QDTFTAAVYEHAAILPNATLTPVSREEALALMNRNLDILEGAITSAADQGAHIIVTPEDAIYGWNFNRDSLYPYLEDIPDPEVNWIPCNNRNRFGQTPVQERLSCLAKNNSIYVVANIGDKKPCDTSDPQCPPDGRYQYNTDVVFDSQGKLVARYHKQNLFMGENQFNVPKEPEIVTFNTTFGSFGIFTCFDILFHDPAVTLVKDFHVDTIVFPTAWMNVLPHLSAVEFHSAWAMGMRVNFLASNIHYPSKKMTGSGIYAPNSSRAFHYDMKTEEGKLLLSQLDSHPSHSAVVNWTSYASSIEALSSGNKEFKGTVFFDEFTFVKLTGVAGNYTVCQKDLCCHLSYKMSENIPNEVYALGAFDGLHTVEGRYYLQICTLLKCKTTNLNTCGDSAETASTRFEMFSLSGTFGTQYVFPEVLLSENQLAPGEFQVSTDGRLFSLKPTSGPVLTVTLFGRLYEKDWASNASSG

`N#Cc1cccc(C(=O)c2cnc(NCc3ccccc3Cl)nc2)c1` [Example 32, 3-({2-[(2-chlorobenzyl)amino]pyrimidin-5-yl}carbonyl) benzonitrile] showed an IC50 (human vanin-1 [1]) of 0.0953 µM, an IC50 (human vanin-1 [2]) of 0.0713 µM and an IC50 (human vanin-1 [3]) of 0.0143 µM.

`NC(=O)c1ccc(CNc2ncc(C(=O)c3cccc(C(F)(F)F)c3)cn2)cc1` [Example 33, 4-[({5-[3-(trifluoromethyl)benzoyl]pyrimidin-2-yl}amino)methyl] benzamide] gave an IC50 (human vanin-1 [1]) of 0.0073 µM, an IC50 (human vanin-1 [2]) of 0.0559 µM and an IC50 (human vanin-1 [3]) of 0.206 µM.

With `O=C(c1ccccc1)c1cnc(NCc2cccnc2)nc1` [Example 34, phenyl{2-[(pyridin-3-ylmethyl)amino]pyrimidin-5-yl}methanone] the IC50 (human vanin-1 [1]) was 0.0537 µM, the IC50 (human vanin-1 [2]) was 0.107 µM and the IC50 (human vanin-1 [3]) was 0.0693 µM.

In the case of `Cc1cccc(C(=O)c2cnc(NCc3ccccn3)nc2)c1` [Example 38, (3-methylphenyl){2-[(pyridin-2-ylmethyl)amino]pyrimidin-5-yl}methanone], the IC50 (human vanin-1 [1]) is reported as 0.857 µM, the IC50 (human vanin-1 [2]) is reported as 0.868 µM and the IC50 (human vanin-1 [3]) is reported as 0.735 µM.

Compound `Cc1cccc(C(=O)c2cnc(NCc3ccccc3)nc2)c1` [Example 40, [2-(benzylamino)pyrimidin-5-yl](3-methylphenyl) methanone] has an IC50 (human vanin-1 [1]) of 1.74 µM, an IC50 (human vanin-1 [2]) of 0.17 µM and an IC50 (human vanin-1 [3]) of 0.543 µM.

Work on `COc1cccc(C(=O)c2cnc(NCc3ccccc3)nc2)c1` [Example 45, [2-(benzylamino)pyrimidin-5-yl](3-methoxyphenyl) methanone] yielded an IC50 (human vanin-1 [1]) of 0.794 µM, an IC50 (human vanin-1 [2]) of 0.188 µM and an IC50 (human vanin-1 [3]) of 0.144 µM.

In the case of `NC(=O)c1cccc(CNc2ncc(C(=O)c3cccc(Cl)c3)cn2)c1` [Example 48, 3-({[5-(3-chlorobenzoyl)pyrimidin-2-yl]amino}methyl) benzamide], the IC50 (human vanin-1 [1]) is reported as 0.218 µM, the IC50 (human vanin-1 [2]) is reported as 0.357 µM and the IC50 (human vanin-1 [3]) is reported as 0.398 µM.

`O=C(O)c1ccc(CNc2ncc(C(=O)c3ccc(F)c(F)c3)cn2)cc1` [Example 49, 4-({[5-(3,4-difluorobenzoyl)pyrimidin-2-yl]amino}methyl) benzoic acid] gave an IC50 (human vanin-1 [1]) of 5.69 µM, an IC50 (human vanin-1 [2]) greater than 7.62 µM and an IC50 (human vanin-1 [3]) of 0.112 µM.

In the case of `COc1ccc(C(=O)c2cnc(NCc3ccc(C(N)=O)cc3)nc2)cc1` [Example 59, 4-({[5-(4-methoxybenzoyl)pyrimidin-2-yl]amino}methyl) benzamide], the IC50 (human vanin-1 [1]) is reported as 2.28 µM, the IC50 (human vanin-1 [2]) is reported as 0.624 µM and the IC50 (human vanin-1 [3]) is reported as 0.192 µM.

`N#Cc1cccc(C(=O)c2cnc(NC3(c4ccccc4)CC3)nc2)c1` [Example 65, 3-({2-[(1-phenylcyclopropyl)amino]pyrimidin-5-yl}carbonyl) benzonitrile] showed an IC50 (human vanin-1 [1]) of 0.0188 µM, an IC50 (human vanin-1 [2]) of 0.0221 µM and an IC50 (human vanin-1 [3]) of 0.012 µM.

Compound `O=C(c1cnc(NC2(c3ccccc3)CC2)nc1)c1cccc(C(F)(F)F)c1` [Example 66, {2-[(1-phenylcyclopropyl)amino]pyrimidin-5-yl}[3-(trifluoromethyl)phenyl]methanone] has an IC50 (human vanin-1 [1]) of 0.0213 µM, an IC50 (human vanin-1 [2]) of 0.0448 µM and an IC50 (human vanin-1 [3]) of 0.0106 µM.

With `N#Cc1cccc(C(=O)c2cnc(NCc3ccc(C(N)=O)cc3)nc2)c1` [Example 68, 4-({[5-(3-cyanobenzoyl)pyrimidin-2-yl]amino}methyl) benzamide] the IC50 (human vanin-1 [1]) was 0.107 µM, the IC50 (human vanin-1 [2]) was 0.0731 µM and the IC50 (human vanin-1 [3]) was 0.0788 µM.

For `Cc1ccc(CNc2ncc(C(=O)c3cccc(C(F)(F)F)c3)cn2)cn1` [Example 73, (2-{[(6-methylpyridin-3-yl)methyl]amino}pyrimidin-5-yl)[3-(trifluoromethyl)phenyl]methanone], the IC50 (human vanin-1 [1]) was 0.0017 µM, the IC50 (human vanin-1 [2]) was 0.0106 µM and the IC50 (human vanin-1 [3]) was 0.0012 µM.

For `NC(=O)c1ccc(CNc2ncc(C(=O)c3ccc(F)c(C(F)(F)F)c3)cn2)cc1` [Example 87, 4-[({5-[4-fluoro-3-(trifluoromethyl)benzoyl]pyrimidin-2-yl}amino)methyl] benzamide], the IC50 (human vanin-1 [1]) was 0.0671 µM, the IC50 (human vanin-1 [2]) was 0.0452 µM and the IC50 (human vanin-1 [3]) was 0.0259 µM.

For `O=C(c1cccc(C(F)(F)F)c1)c1ccc(NCc2cccnc2)nn1` [Example 91, {6-[(pyridin-3-ylmethyl)amino]pyridazin-3-yl}[3-(trifluoromethyl)phenyl]methanone], the IC50 (human vanin-1 [1]) was 0.789 µM, the IC50 (human vanin-1 [2]) was 0.783 µM and the IC50 (human vanin-1 [3]) was 0.0913 µM.

Work on `NC(=O)c1ccc(CNc2ncc(C(=O)c3cc(F)cc(C(F)(F)F)c3)cn2)cc1` [Example 95, 4-[({5-[3-fluoro-5-(trifluoromethyl)benzoyl]pyrimidin-2-yl}amino)methyl] benzamide] yielded an IC50 (human vanin-1 [1]) of 0.0919 µM, an IC50 (human vanin-1 [2]) of 0.242 µM and an IC50 (human vanin-1 [3]) of 0.166 µM.

`O=C(c1cnc(NCc2cccnc2)nc1)c1ccc2c(c1)OCCO2` [Example 98, 2,3-dihydro-1,4-benzodioxin-6-yl{2-[(pyridin-3-ylmethyl)amino]pyrimidin-5-yl}methanone] was tested, and the IC50 (human vanin-1 [1]) was 0.102 µM, the IC50 (human vanin-1 [2]) was 0.149 µM and the IC50 (human vanin-1 [3]) was 0.0555 µM.

`O=C(c1cnc(NCc2cccnc2)nc1)c1cccs1` [Example 100, {2-[(pyridin-3-ylmethyl)amino]pyrimidin-5-yl}(thiophen-2-yl)methanone] showed an IC50 (human vanin-1 [1]) of 0.162 µM, an IC50 (human vanin-1 [2]) of 0.122 µM and an IC50 (human vanin-1 [3]) of 0.145 µM.

Compound `O=C(c1cnc(NCc2cccnc2)nc1)c1ccccc1Cl` [Example 102, (2-chlorophenyl){2-[(pyridin-3-ylmethyl)amino]pyrimidin-5-yl}methanone] has an IC50 (human vanin-1 [1]) of 0.858 µM, an IC50 (human vanin-1 [2]) of 0.549 µM and an IC50 (human vanin-1 [3]) of 0.722 µM.

Work on `Cc1ccc2cc(C(=O)c3cnc(NCc4cccnc4)nc3)ccc2n1` [Example 104, (2-methylquinolin-6-yl){2-[(pyridin-3-ylmethyl)amino]pyrimidin-5-yl}methanone] yielded an IC50 (human vanin-1 [1]) of 0.196 µM, an IC50 (human vanin-1 [2]) of 0.117 µM and an IC50 (human vanin-1 [3]) of 0.2 µM.

`N#Cc1cccc(C(=O)c2cnc(NCc3ccc(C(N)=O)nc3)nc2)c1` [Example 105, 5-({[5-(3-cyanobenzoyl)pyrimidin-2-yl]amino}methyl) pyridine-2-carboxamide] showed an IC50 (human vanin-1 [1]) of 0.146 µM, an IC50 (human vanin-1 [2]) of 0.195 µM and an IC50 (human vanin-1 [3]) of 0.173 µM.

For `NC(=O)c1ccc(CNc2ncc(C(=O)c3ccccc3)cn2)cc1` [Example 106, 4-{[(5-benzoylpyrimidin-2-yl)amino]methyl} benzamide], the IC50 (human vanin-1 [1]) was 0.387 µM, the IC50 (human vanin-1 [2]) was 0.991 µM and the IC50 (human vanin-1 [3]) was 0.423 µM.

For `N#Cc1cccc(C(=O)c2cnc(NCc3cccnn3)nc2)c1` [Example 108, 3-({2-[(pyridazin-3-ylmethyl)amino]pyrimidin-5-yl}carbonyl) benzonitrile], the IC50 (human vanin-1 [1]) was 0.111 µM, the IC50 (human vanin-1 [2]) was 0.11 µM and the IC50 (human vanin-1 [3]) was 0.0967 µM.

For `O=C(c1ccccc1)c1cnc(NCc2cncnc2)nc1` [Example 109, phenyl{2-[(pyrimidin-5-ylmethyl)amino]pyrimidin-5-yl}methanone], the IC50 (human vanin-1 [1]) was 0.143 µM, the IC50 (human vanin-1 [2]) was 0.145 µM and the IC50 (human vanin-1 [3]) was 0.0953 µM.

`CC(C)(Nc1ncc(C(=O)c2ccccc2)cn1)c1ccccc1` [Example 110, phenyl{2-[(2-phenylpropan-2-yl)amino]pyrimidin-5-yl}methanone] was tested, and the IC50 (human vanin-1 [1]) was 0.422 µM, the IC50 (human vanin-1 [2]) was 0.238 µM and the IC50 (human vanin-1 [3]) was 0.0635 µM.

Work on `O=C(c1ccccc1)c1cnc(NC2(c3ccccc3)CC2)nc1` [Example 111, phenyl{2-[(1-phenylcyclopropyl)amino]pyrimidin-5-yl}methanone] yielded an IC50 (human vanin-1 [1]) of 0.367 µM, an IC50 (human vanin-1 [2]) of 0.202 µM and an IC50 (human vanin-1 [3]) of 0.182 µM.

With `N#Cc1cccc(C(=O)c2cnc(NCc3ccnnc3)nc2)c1` [Example 112, 3-({2-[(pyridazin-4-ylmethyl)amino]pyrimidin-5-yl}carbonyl) benzonitrile] the IC50 (human vanin-1 [1]) was 5.57 µM, the IC50 (human vanin-1 [2]) was 0.856 µM and the IC50 (human vanin-1 [3]) was 1.87 µM.

`N#Cc1cccc(CNc2ncc(C(=O)c3ccccc3)cn2)c1` [Example 113, 3-{[(5-benzoylpyrimidin-2-yl)amino]methyl} benzonitrile] gave an IC50 (human vanin-1 [1]) of 0.872 µM, an IC50 (human vanin-1 [2]) of 0.334 µM and an IC50 (human vanin-1 [3]) of 0.259 µM.

With `O=C(c1ccccc1)c1cnc(NC2(c3cccnc3)CC2)nc1` [Example 114, phenyl(2-{[1-(pyridin-3-yl)cyclopropyl]amino}pyrimidin-5-yl)methanone] the IC50 (human vanin-1 [1]) was 0.38 µM, the IC50 (human vanin-1 [2]) was 0.255 µM and the IC50 (human vanin-1 [3]) was 0.17 µM.

In the case of `O=C(c1ccccc1)c1cnc(NCc2cccnn2)nc1` [Example 115, phenyl{2-[(pyridazin-3-ylmethyl)amino]pyrimidin-5-yl}methanone], the IC50 (human vanin-1 [1]) is reported as 1.4 µM, the IC50 (human vanin-1 [2]) is reported as 1.51 µM and the IC50 (human vanin-1 [3]) is reported as 0.806 µM.

Work on `O=C(c1ccccc1)c1cnc(NCc2cnccn2)nc1` [Example 116, phenyl{2-[(pyrazin-2-ylmethyl)amino]pyrimidin-5-yl}methanone] yielded an IC50 (human vanin-1 [1]) of 0.419 µM, an IC50 (human vanin-1 [2]) of 0.561 µM and an IC50 (human vanin-1 [3]) of 0.321 µM.
